Measurements from PubChem BioAssay (NCI).
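1) Cells in 96-well plates. 2) Compound, 48 h, 5 concentrations. 3) Linear interpolation between surrounding doses. 4) Unreached endpoint = highest concentration. Definition used: TGI = concentration required for complete inhibition of growth.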

Legend:
Test in all cases: growth of human tumour cells (NCI), 48 h
[1] = system: A549 NSCLC
[2] = system: BT-549 breast
[3] = system: CAKI-1 renal
[4] = system: CCRF-CEM leukemia
[5] = system: COLO 205 colon
[6] = system: DU-145 prostate
[7] = system: EKVX NSCLC
[8] = system: HCT-15 colon
[9] = system: HL-60(TB) leukemia
[10] = system: HOP-62 NSCLC
[11] = system: HOP-92 NSCLC
[12] = system: HT29 colon
[13] = system: IGROV1 ovarian
[14] = system: K-562 leukemia
[15] = system: KM12 colon
[16] = system: LOX IMVI melanoma
[17] = system: M14 melanoma
[18] = system: MALME-3M melanoma
[19] = system: MDA-MB-231 breast
[20] = system: MDA-MB-435
[21] = system: MOLT-4 leukemia
[22] = system: NCI-H226 lung
[23] = system: NCI-H23 lung
[24] = system: NCI-H460 lung
[25] = system: NCI-H522 lung
[26] = system: NCI/ADR-RES ovarian
[27] = system: OVCAR-3 ovarian
[28] = system: OVCAR-4 ovarian
[29] = system: OVCAR-5 ovarian
[30] = system: OVCAR-8 ovarian
[31] = system: PC-3 prostate
[32] = system: RPMI-8226 leukemia
[33] = system: SF-268 CNS
[34] = system: SF-295 CNS
[35] = system: SK-MEL-2 melanoma
[36] = system: SK-MEL-28 melanoma
[37] = system: SK-MEL-5 melanoma
[38] = system: SNB-19 CNS
[39] = system: SW-620 colon
[40] = system: T-47D breast
[41] = system: TK-10 renal
[42] = system: U251 CNS
[43] = system: UACC-257 melanoma
[44] = system: UACC-62 melanoma
[45] = system: UO-31 renal

Q: For `Cc1cccc(N2C(=O)C3c4[nH]c5ccc(C)cc5c4C4CCC(C(C)(C)C)CC4C3C2=O)c1` (stereo not given), which TGI [1] is on record?
A: The TGI was 60.7 µM.

Q: What about the TGI [2] of the same molecule?
A: Its TGI is > 100 µM.

Q: What about the TGI [3] of the same molecule?
A: Its TGI is > 100 µM.

Q: And the TGI [4]?
A: Its TGI is 68 µM.

Q: What about the TGI [5] of the same molecule?
A: The TGI was > 100 µM.

Q: And the TGI [6]?
A: The TGI was 38.7 µM.

Q: And the TGI [7]?
A: The TGI was 85.6 µM.

Q: What about the TGI [8] of the same molecule?
A: The TGI was > 100 µM.

Q: What about the TGI [9] of the same molecule?
A: The TGI was 40.3 µM.

Q: What about the TGI [10] of the same molecule?
A: Its TGI is 30.9 µM.

Q: What about the TGI [11] of the same molecule?
A: Its TGI is 57.6 µM.

Q: And the TGI [12]?
A: The TGI was > 100 µM.

Q: What about the TGI [13] of the same molecule?
A: Its TGI is > 100 µM.

Q: What about the TGI [14] of the same molecule?
A: Its TGI is > 100 µM.

Q: And the TGI [15]?
A: The TGI was 38 µM.

Q: And the TGI [16]?
A: The TGI was 43.7 µM.

Q: What about the TGI [17] of the same molecule?
A: The TGI was > 100 µM.

Q: What about the TGI [18] of the same molecule?
A: The TGI was 71.2 µM.

Q: What about the TGI [19] of the same molecule?
A: The TGI was 38.4 µM.

Q: And the TGI [20]?
A: The TGI was > 100 µM.

Q: And the TGI [21]?
A: The TGI was 29.7 µM.

Q: What about the TGI [22] of the same molecule?
A: The TGI was 36.5 µM.

Q: And the TGI [23]?
A: The TGI was > 100 µM.

Q: And the TGI [24]?
A: The TGI was 36.3 µM.

Q: And the TGI [25]?
A: The TGI was 45.7 µM.

Q: And the TGI [26]?
A: The TGI was 48.5 µM.

Q: And the TGI [27]?
A: The TGI was 28.9 µM.

Q: What about the TGI [28] of the same molecule?
A: Its TGI is > 100 µM.

Q: What about the TGI [29] of the same molecule?
A: Its TGI is > 100 µM.

Q: What about the TGI [30] of the same molecule?
A: Its TGI is 47.7 µM.

Q: And the TGI [31]?
A: Its TGI is 31.3 µM.

Q: What about the TGI [32] of the same molecule?
A: The TGI was 41.1 µM.

Q: What about the TGI [33] of the same molecule?
A: The TGI was 34.9 µM.

Q: And the TGI [34]?
A: The TGI was 47.5 µM.

Q: And the TGI [35]?
A: Its TGI is > 100 µM.

Q: And the TGI [36]?
A: Its TGI is > 100 µM.

Q: And the TGI [37]?
A: Its TGI is > 100 µM.

Q: What about the TGI [38] of the same molecule?
A: The TGI was > 100 µM.

Q: And the TGI [39]?
A: The TGI was 59.6 µM.

Q: What about the TGI [40] of the same molecule?
A: Its TGI is 52.1 µM.

Q: And the TGI [41]?
A: The TGI was 59.8 µM.

Q: And the TGI [42]?
A: The TGI was 62.3 µM.

Q: And the TGI [43]?
A: Its TGI is > 100 µM.

Q: And the TGI [44]?
A: Its TGI is > 100 µM.

Q: And the TGI [45]?
A: Its TGI is > 100 µM.
